Paper PMC7915026, “Sulfaguanidine Hybrid with Some New Pyridine-2-One Derivatives: Design, Synthesis, and Antimicrobial Activity against Multidrug-Resistant Bacteria as Dual DNA Gyrase and DHFR Inhibitors” (Antibiotics, 2021)
In brackets after ≈: the same amount, converted by molar mass.

Experiments:
[1] = system: S. aureus ATCC 29213; assay: Inhibition zone, paper disk/agar diffusion; type: cell-based; settings: S. aureus; Na = no activity
Excerpt: (§1) The antimicrobial activity performed at the bacteriology laboratory, Botany and Microbiology Department, Faculty of Science, Al-Azhar University, Cairo, Egypt. The inhibition zone (IZ) of the tested derivatives expressed as the diameter (mm) according to the agar plate diffusion method.

[2] = system: F. oxysporum (RCMB 008002); assay: Inhibition zone, paper disk/agar diffusion; type: cell-based; settings: Na = no activity
Excerpt: as §1

[3] = system: E. coli ATCC 25922; assay: Inhibition zone, paper disk/agar diffusion; type: cell-based; settings: E. coli; Na = no activity
Excerpt: as §1

[4] = system: C. albicans (ATCC 10231); assay: Inhibition zone, paper disk/agar diffusion; type: cell-based; settings: Na = no activity
Excerpt: as §1

[5] = system: S. typhi ATCC 6539; assay: Inhibition zone, paper disk/agar diffusion; type: cell-based; settings: S. typhi; Na = no activity
Excerpt: as §1

[6] = system: E. faecalis ATCC 29212; assay: Inhibition zone, paper disk/agar diffusion; type: cell-based; settings: E. faecalis; Na = no activity
Excerpt: as §1

[7] = target: E. coli DHFR (dihydrofolate reductase) (Escherichia coli, UniProt P0ABQ4); assay: In vitro DHFR enzymatic assay; type: biochemical
E. coli DHFR (dihydrofolate reductase), sequence (P0ABQ4 whole entry): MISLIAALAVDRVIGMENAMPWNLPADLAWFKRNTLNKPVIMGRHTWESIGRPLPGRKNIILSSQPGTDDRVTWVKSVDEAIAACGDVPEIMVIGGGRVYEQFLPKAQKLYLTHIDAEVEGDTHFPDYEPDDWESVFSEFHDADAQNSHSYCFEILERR

[8] = system: S. aureus ATCC 43300; assay: Inhibition zone against multidrug-resistant bacteria; type: cell-based; settings: MDRB S. aureus ATCC 43300
Excerpt: (§2) Norfloxacin was used as a positive control for the multidrug resistance study.
as §1

[9] = system: S. aureus ATCC 33591; assay: as above; type: cell-based; settings: MDRB S. aureus ATCC 33591
Excerpt: as §2, §1

[10] = system: E. coli ATCC BAA-196; assay: as above; type: cell-based; settings: MDRB E. coli ATCC BAA-196
Excerpt: as §2, §1

[11] = system: P. aeruginosa ATCC BAA-2111; assay: as above; type: cell-based; settings: MDRB P. aeruginosa ATCC BAA-2111
Excerpt: as §2, §1

[12] = system: neutrophils; assay: In vitro intracellular killing, nitro blue tetrazolium (NBT) reduction assay; type: cell-based
Description: One of the broad methods used for determining immune disorders for patients in hospitals is the NBT test to measure their immune responses. The reduction in NBT dye provides information about the phagocytic and intracellular killing functions of neutrophils, which are important for microbiocidal activity. The most promising derivatives (2a, 2b, 2d, 3a, 8, and 11) were evaluated against in vitro intracellular killing activities using a nitro blue tetrazolium (NBT) reduction assay and the obtained results expressed in percentage (%): increasing the percentage led to an improvement in the killing ability of the neutrophils used as innate immunity.
In vitro intracellular killing activities for the most promising six derivatives 2a, 2b, 2d, 3a, 8, and 11 were performed according to reported methods.

[13] = system: P. aeruginosa ATCC 27853; assay: MIC and MBC determination; type: cell-based; settings: Pseudomonas aeruginosa, ATCC27853, P. aeruginosa
[14] = system: S. aureus ATCC 43300; assay: MIC and MBC against multidrug-resistant strains; type: cell-based; settings: Staphylococcus aureus, ATCC43300
Excerpt: as §2
(§3) The experiment was repeating for three-times.

[15] = system: S. aureus ATCC 33591; assay: MIC and MBC against multidrug-resistant strains; type: cell-based; settings: Staphylococcus aureus, ATCC33591
Excerpt: as §2, §3

[16] = system: E. coli ATCC BAA-196; assay: MIC and MBC against multidrug-resistant strains; type: cell-based; settings: Escherichia coli, ATCCBAA196
Excerpt: as §2, §3

[17] = system: P. aeruginosa ATCC BAA-2111; assay: MIC and MBC against multidrug-resistant strains; type: cell-based; settings: Pseudomonas aeruginosa, ATCCBAA2111
Excerpt: as §2, §3

[18] = target: S. aureus DNA gyrase (Staphylococcus aureus, UniProt P0A0K8+P20831); assay: In vitro DNA gyrase supercoiling enzymatic assay; type: biochemical
S. aureus DNA gyrase, sequence (P20831 whole entry): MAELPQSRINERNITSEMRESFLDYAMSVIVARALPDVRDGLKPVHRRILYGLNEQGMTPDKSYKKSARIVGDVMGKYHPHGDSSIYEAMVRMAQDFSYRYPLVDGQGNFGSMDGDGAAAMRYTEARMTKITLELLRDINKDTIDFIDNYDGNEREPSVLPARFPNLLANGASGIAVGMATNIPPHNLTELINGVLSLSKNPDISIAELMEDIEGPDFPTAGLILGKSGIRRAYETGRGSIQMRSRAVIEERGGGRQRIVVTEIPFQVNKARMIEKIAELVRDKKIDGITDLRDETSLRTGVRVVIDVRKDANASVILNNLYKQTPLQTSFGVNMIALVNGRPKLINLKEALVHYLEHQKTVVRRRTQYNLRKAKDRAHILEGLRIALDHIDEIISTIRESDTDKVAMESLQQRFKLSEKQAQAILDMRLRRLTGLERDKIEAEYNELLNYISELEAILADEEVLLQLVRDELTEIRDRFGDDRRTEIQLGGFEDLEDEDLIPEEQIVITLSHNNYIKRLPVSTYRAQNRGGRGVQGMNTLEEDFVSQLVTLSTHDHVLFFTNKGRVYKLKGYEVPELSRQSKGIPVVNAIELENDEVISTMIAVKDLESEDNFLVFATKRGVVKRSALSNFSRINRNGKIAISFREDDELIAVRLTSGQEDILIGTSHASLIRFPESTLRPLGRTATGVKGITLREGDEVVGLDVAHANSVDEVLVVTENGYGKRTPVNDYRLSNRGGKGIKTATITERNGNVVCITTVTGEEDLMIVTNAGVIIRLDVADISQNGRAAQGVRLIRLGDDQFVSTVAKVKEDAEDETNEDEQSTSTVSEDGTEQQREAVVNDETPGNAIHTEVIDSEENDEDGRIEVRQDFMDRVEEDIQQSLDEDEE
S. aureus DNA gyrase, sequence (P0A0K8 whole entry): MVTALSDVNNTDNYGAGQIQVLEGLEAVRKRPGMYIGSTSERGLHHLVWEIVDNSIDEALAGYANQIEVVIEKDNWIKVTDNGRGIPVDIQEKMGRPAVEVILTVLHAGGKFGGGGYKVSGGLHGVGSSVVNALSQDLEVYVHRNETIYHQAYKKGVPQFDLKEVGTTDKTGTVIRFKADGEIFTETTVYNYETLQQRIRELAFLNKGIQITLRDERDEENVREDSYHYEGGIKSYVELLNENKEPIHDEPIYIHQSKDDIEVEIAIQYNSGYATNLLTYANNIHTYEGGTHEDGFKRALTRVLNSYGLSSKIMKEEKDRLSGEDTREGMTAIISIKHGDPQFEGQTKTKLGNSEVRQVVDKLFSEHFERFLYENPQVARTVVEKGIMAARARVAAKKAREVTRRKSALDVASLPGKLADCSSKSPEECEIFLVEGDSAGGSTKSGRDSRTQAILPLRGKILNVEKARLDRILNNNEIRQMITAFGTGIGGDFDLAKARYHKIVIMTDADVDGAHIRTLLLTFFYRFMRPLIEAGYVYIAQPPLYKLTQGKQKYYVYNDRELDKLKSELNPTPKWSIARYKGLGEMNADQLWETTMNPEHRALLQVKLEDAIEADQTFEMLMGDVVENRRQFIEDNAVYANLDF

[19] = system: E. coli ATCC 25922; assay: MIC and MBC determination; type: cell-based; settings: Escherichia coli, ATCC25922, E. coli
[20] = system: C. albicans (ATCC 10231); assay: MIC and MFC determination; type: cell-based
[21] = system: Salmonella typhi (S. typhi ATCC 6539); assay: microbe, parasite or virus in culture; type: cell-based; settings: Salmonella enterica, Salmonella typhi
[22] = system: F. oxysporum (RCMB 008002); assay: MIC and MFC determination; type: cell-based
[23] = system: B. subtilis ATCC 6633; assay: MIC and MBC determination; type: cell-based; settings: Bacillus subtilis, ATCC6633, B. subtilis
[24] = system: E. faecalis ATCC 29212; assay: MIC and MBC determination; type: cell-based; settings: Enterococcus faecalis, ATCC29212, E. faecalis
[25] = system: S. aureus ATCC 29213; assay: MIC and MBC determination; type: cell-based; settings: Staphylococcus aureus, ATCC29213, S. aureus

With `N#CC(=Cc1ccc(Cl)cc1)C(=O)Nc1ccc(S(=O)(=O)NC(=N)N)cc1` [Compound 2a, N-(4-(N-Carbamimidoylsulfamoyl)phenyl)-3-(4-chlorophenyl)-2-cyanoacrylamide] the “Mean Diameter of the Inhibition Zone” value [1] was 25 ± 0.77 mm, the “Mean Diameter of the Inhibition Zone” value [2] was 21 ± 0.16 mm and the “Mean Diameter of the Inhibition Zone” value [3] was 26 ± 0.11 mm. For the same compound, the “Mean Diameter of the Inhibition Zone” value [4] was 25 ± 0.33 mm, the “Mean Diameter of the Inhibition Zone” value [5] was 23 ± 0.65 mm and the “Mean Diameter of the Inhibition Zone” value [6] was 23 ± 0.65 mm. For the same compound, the IC50 [7] was 5.54 ± 0.33 µM, the “Mean Diameter of Inhibition Zone” value [8] was 23 ± 0.11 mm and the “Mean Diameter of Inhibition Zone” value [9] was 25 ± 0.33 mm. For the same compound, the “Mean Diameter of Inhibition Zone” value [10] was 23 ± 0.94 mm, the “Mean Diameter of Inhibition Zone” value [11] was 24 ± 0.18 mm and the “Intracellular Killing Activity” value [12] was 82.8 ± 0.37%. For the same compound, the MBC ([13]; read-out: MBC) was 219.9 ± 1.54 µM (≈ 88.8 µg/mL), the MIC ([13]; read-out: MIC) was 137 ± 2.12 µM (≈ 55.5 µg/mL) and the MBC [14] was 22 ± 0.65 µM (≈ 8.88 µg/mL). It also gave an MIC [14] of 11 ± 0.25 µM (≈ 4.44 µg/mL), an MBC [15] of 8.19 ± 0.26 µM (≈ 3.31 µg/mL) and an MIC [15] of 4.82 ± 0.24 µM (≈ 1.95 µg/mL). The MBC [16] was 29.4 ± 0.65 µM (≈ 11.9 µg/mL), the MIC [16] was 15.5 ± 0.26 µM (≈ 6.25 µg/mL) and the MBC [17] was 21.3 ± 0.25 µM (≈ 8.61 µg/mL). It also gave an MIC [17] of 12.9 ± 0.65 µM (≈ 5.2 µg/mL), an IC50 [18] of 23.9 ± 1.22 µM and an MBC ([19]; read-out: MBC) of 90.4 ± 0.98 µM (≈ 36.5 µg/mL). The MIC ([19]; read-out: MIC) was 45.8 ± 0.98 µM (≈ 18.5 µg/mL), the MFC/MIC [20] was <2 and the MFC ([20]; Candida albicans, ATCC10231, read-out: MFC) was 103.1 ± 1.02 µM (≈ 41.6 µg/mL). The MIC ([20]; Candida albicans, ATCC10231, read-out: MIC) was 77.4 ± 0.85 µM (≈ 31.2 µg/mL), the MBC ([21]; read-out: MBC) was 139 ± 1.63 µM (≈ 56.2 µg/mL) and the MIC ([21]; read-out: MIC) was 77.4 ± 1.06 µM (≈ 31.2 µg/mL). For the same compound, the MFC/MIC [22] was <2, the MFC ([22]; Fusarium oxysporum, RCMB008002, read-out: MFC) was 217 ± 2.98 µM (≈ 87.5 µg/mL) and the MIC ([22]; Fusarium oxysporum, RCMB008002, read-out: MIC) was 138 ± 1.69 µM (≈ 55.5 µg/mL). It also gave an MBC ([23]; read-out: MBC) of 45.8 ± 1.65 µM (≈ 18.5 µg/mL), an MIC ([23]; read-out: MIC) of 22.9 ± 1.02 µM (≈ 9.25 µg/mL) and an MBC ([24]; read-out: MBC) of 38.7 ± 0.65 µM (≈ 15.6 µg/mL). The MIC ([24]; read-out: MIC) was 19.3 ± 0.65 µM (≈ 7.81 µg/mL), the MBC ([25]; read-out: MBC) was 132 ± 1.35 µM (≈ 53.1 µg/mL) and the MIC ([25]; read-out: MIC) was 77.4 ± 2.65 µM (≈ 31.2 µg/mL).
